Measurements from US20120010266A1, “TBC1D7 AS TUMOR MARKER AND THERAPEUTIC TARGET FOR CANCER” (Oncotherapy Science Inc.,, priority 2008, published 2012).

T1: flag-TBC1D7 (exogenous TBC1D7 transiently expressed in COS-7 cells) (human, UniProt Q9P0N9 1-293)
T1 construct: The only full-length flag vector described is pCAGGSn3FC, with 3xflag at the C-terminus, so it may be the same construct as m2; The order of the parts is therefore uncertain
T1 sequence: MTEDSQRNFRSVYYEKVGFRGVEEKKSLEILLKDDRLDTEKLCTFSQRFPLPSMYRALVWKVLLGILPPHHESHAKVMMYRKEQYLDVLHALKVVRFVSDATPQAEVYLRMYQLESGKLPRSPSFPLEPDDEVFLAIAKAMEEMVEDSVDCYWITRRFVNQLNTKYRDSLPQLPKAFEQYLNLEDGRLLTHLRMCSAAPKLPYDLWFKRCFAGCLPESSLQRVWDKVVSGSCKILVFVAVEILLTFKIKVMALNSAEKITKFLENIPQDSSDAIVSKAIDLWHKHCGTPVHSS

B1: Myc-RAB17 (pcDNA3.1 Myc-His RAB17), exogenous RAB17 expressed in COS-7 cells (other)
chain: MAQAHRTPQPRAAPSQPRVFKLVLLGSGSVGKSSLALRYVKNDFKSILPTVGCAFFTKVVDVGATSLKLEIWDTAGQEKYHSVCHLYFRGANAALLVYDITRKDSFLKAQQWLKDLEEELHPGEVLVMLVGNKTDLSQEREVTFQEGKEFADSQKLLFMETSAKLNHQVSEVFNTVAQELLQRSDEEGQALRGDAAVALNKGPARQAKCCAH
notes: not shown: Myc-His tag of the pcDNA3.1 Myc-His vector

Tests used:
[1] = system: p-rpS6 (Ser235/236), downstream target of mTORC1; assay: Effect of TSC1 knockdown on mTORC1 pathway in LC319 cells (phosphorylation of rpS6); format: cell-based, human; settings: LC319 cells treated with siRNA against TSC1
TSC1 = assay: si-TSC1 treatment of LC319 cells: TSC1 and TBC1D7 transcript and protein levels (semiquantitative RT-PCR, western blot); format: cell-based, human; settings: for TBC1D7 protein level: LC319 cells treated with siRNA against TSC1, western blot
Description: Total RNA was extracted from cultured cells and clinical tissues using Trizol reagent (Life Technologies, Inc.) according to the manufacturer's protocol. Extracted RNAs were treated with DNase I (Nippon Gene) and reversely-transcribed using oligo (dT) primer and SuperScript II reverse transcriptase (Invitrogen). Semiquantitative RT-PCR experiments were carried out with the following synthesized TBC1D7-specific primers or with beta-actin (ACTB)-specific primers as an internal control: TBC1D7, 5′-[…]-3′ (SEQ ID NO.: 5) or 5′-[…]-3′ (SEQ ID NO.:15) and 5′-[…]-3′ (SEQ ID NO.: 6); TSC1, 5′-[…]-3′ (SEQ ID NO.:16) and 5′-[…]-3′ (SEQ ID NO.:17); ACTB, 5′-[…]-3′ (SEQ ID NO.: 7) and 5′-[…]-3′ (SEQ ID NO.: 8). PCR reactions were optimized for the number of cycles to ensure product intensity within the logarithmic phase of amplification.
Cells were lysed in lysis buffer; 50 mM Tris-HCl (pH 8.0), 150 mM NaCl, 0.5% NP-40, 0.5% deoxycholate-Na, 0.1% SDS, plus protease inhibitor (Protease Inhibitor Cocktail Set III; Calbiochem). It was used an ECL western-blotting analysis system (GE Healthcare Bio-sciences), as previously described (Takahashi K. et al. Cancer Res 2006; 66:9408-19).
Small interfering RNA (siRNA) duplexes (100 nM) were transfected into a NSCLC cell line, A549 and LC319, using 24 microL of Lipofectamine 2000 (Invitrogen) following the manufacturer's protocol. The transfected cells were cultured for 7 days, and the number of colonies was counted by Giemsa staining, and viability of cells was evaluated by 3-(4,5-dimethylthiazol-2-yl)-2,5-diphenyltetrazolium bromide (MTT) assay (cell counting kit-8 solution; Dojindo Laboratories), at 7 days after transfection. To confirm suppression of TBC1D7 and TSC1 expression, western blotting using antibodies to TBC1D7 and TSC1 as well as semiquantitative RT-PCR with synthesized primers specific for TBC1D7 and TSC1 were carried out as described above. SiRNA sequences against human TBC1D7 and TSC1 were as follows, si-TBC1D7#3: GAACAGUGCAGAGAAGAUA (SEQ ID NO.:18), si-TBC1D7#4: GAUAAAGUUGUGAGUGGAU (SEQ ID NO.:19), and si-TSC1: CGACACGGCUGAUAACUGA (SEQ ID NO.:20). The present inventors also designed siRNA oligonucleotides against control-1 (LUC: luciferase gene from Photinus pyralis), 5′-CGUACGCGGAAUACUUCGA-3′ (SEQ ID NO.:21) and control-2 (EGFP: enhanced green fluorescent protein (GFP) gene, a mutant of Aequorea victoria GFP), 5′-GAAGCAGCACGACUUCUUC-3′ (SEQ ID NO.:22).

[2] = molecular target: T1, flag-TBC1D7 (exogenous TBC1D7 …); assay: co-immunoprecipitation from COS-7 cells expressing flag-TBC1D7 and Myc-RAB17 (FIG. 4B)
Description: FIG. 4 depicts interaction of TBC1D7 with binding proteins. A, Interaction of exogenous TBC1D7 with endogenous 14-3-3 zeta protein in COS-7 cells. Immunoprecipitations were carried out using anti-flag M2 agarose and extracts from COS-7 cells transiently expressing flag-TBC1D7. Immunoprecipitates were subjected to western-blot analysis to detect endogenous 14-3-3. B, Interaction of exogenous TBC1D7 with exogenous RAB 17 protein in COS-7 cells. Immunoprecipitations were carried out using anti-flag M2 agarose and extracts from COS-7 cells transiently expressing flag-TBC1D7 and/or Myc-RAB17. Immunoprecipitates were subjected to western-blot analysis to detect exogenous RAB 17. IB, immunoblotting; IP, immunoprecipitation. C, Expression of TSC1 and TBC1D7 in lung cancer cells. […] Left panels, The levels of TSC1 and TBC1D7 transcripts and proteins, detected by semiquantitative RT-PCR analysis and western-blot analysis in LC319 cells transfected with si-TSC1. Right panels, The levels of TSC1 and TBC1D7 transcripts and proteins, detected by semiquantitative RT-PCR analysis and western-blot analysis in LC319 cells transfected with TSC1 expression vector. F, The levels of endogenous TSC1 and TBC1D7 proteins, detected by western blot analysis in LC319 cells that were initially transfected with si-TSC1, and were subsequently transfected with TSC1 expression vector 24 hours after the siRNA transfection. […]

Row | binding result [2] | Molecule | levels of p-rpS6 (Ser235/236) protein [1] | transcription level of TBC1D7 (TSC1; LC319 cells treated with si-TSC1, semiquantitative RT-PCR) | TBC1D7 protein level (TSC1) | TBC1D7 protein level (TSC1; listed as siRNA against TSC1) | expression of the endogenous TSC1 (TSC1; LC319 cells, in comparison to control siRNA (si-EGFP))
1 | – | si-TSC1: siRNA sequence against human TSC1: CGACACGGCUGAUAACUGA (SEQ ID NO: 20) (listed as RNA, chemistry not given here) | not changed | unchanged | decreased | Reduced levels | suppressed
2 | binds | B1 | – | – | – | – | –
